Assay results taken from paper PMC4784473 (Bioorganic & medicinal chemistry letters, 2008).

Columns and labels:
[1] = test system: Vero cells; test: Vero cell cytotoxicity; format: cell-based; conditions: Vero cell toxicity versus M. tuberculosis growth inhibition
[2] = target: M. tuberculosis DXS (Mycobacterium tuberculosis, UniProt P9WNS3); test: biochemical; format: biochemical; conditions: for inhibitory activity against M. tuberculosis DXS (in words): SAR discussion
Chain of M. tuberculosis DXS (P9WNS3 whole entry): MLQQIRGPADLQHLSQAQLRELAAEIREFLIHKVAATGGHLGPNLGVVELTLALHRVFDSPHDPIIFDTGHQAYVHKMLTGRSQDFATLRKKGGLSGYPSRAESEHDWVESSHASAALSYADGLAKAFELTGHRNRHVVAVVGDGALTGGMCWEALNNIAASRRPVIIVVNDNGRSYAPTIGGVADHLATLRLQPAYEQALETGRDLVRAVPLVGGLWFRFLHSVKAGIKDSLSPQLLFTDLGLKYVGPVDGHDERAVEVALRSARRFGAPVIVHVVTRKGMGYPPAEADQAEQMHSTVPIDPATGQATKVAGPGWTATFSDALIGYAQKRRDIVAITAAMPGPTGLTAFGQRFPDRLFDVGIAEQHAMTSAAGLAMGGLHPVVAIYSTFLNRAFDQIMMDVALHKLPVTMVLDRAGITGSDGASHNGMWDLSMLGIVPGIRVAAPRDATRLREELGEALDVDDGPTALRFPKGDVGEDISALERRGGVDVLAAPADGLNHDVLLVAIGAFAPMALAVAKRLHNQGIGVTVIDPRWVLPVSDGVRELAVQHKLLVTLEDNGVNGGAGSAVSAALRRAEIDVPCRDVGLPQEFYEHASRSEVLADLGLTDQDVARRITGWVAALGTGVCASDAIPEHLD

| Compound | inhibitory activity against M. tuberculosis DXS (in words) [2] | further results |
| --- | --- | --- |
| COc1ccc(-c2cc(=O)n3nc(C)c(-c4ccc(F)cc4)c3[nH]2)cc1 [Compound 19, 2-methyl-3-(4-fluorophenyl)-5-(4-meth-oxy-phenyl)-4H-pyrazolo[1,5-a]pyrimidin-7-one] |  | selectivity index [1]: 4.6 |
| CCCc1c(-c2ccccc2)[nH]c2c(-c3ccccc3)c(C)nn2c1=O [Compound 27] |  | IC50 [2]: 71.9 ± 10.1 µM |
| COc1ccc(-c2cc(=O)n3nc(C)c(-c4ccc(Cl)cc4)c3[nH]2)cc1 [Compound 18] |  | selectivity index [1]: 2.1 |
| COCc1cc(=O)n2nc(C)c(-c3ccc(Cl)cc3)c2[nH]1 [Compound 25] | loss in activity |  |
| CCOC(=O)Cc1c(C)nc2c(-c3ccccc3)cnn2c1O [Compound 4] | lost its activity |  |
| COCc1cc(=O)n2ncc(-c3ccc(Cl)cc3)c2[nH]1 [Compound 2] | inhibitory activity was abolished |  |
| Cc1cc(=O)n2ncc(-c3ccc(Cl)cc3)c2[nH]1 [Compound 3] | inhibitory activity was abolished |  |
